Values quoted from earlier work, collected in patent EP2151445B1, “Process for the preparation of bidentate Schiff base ruthenium catalysts containing a salicylaldimine-type ligand” (Rimtec Corporation, priority 2008, dated 2010).

conditions: in water

pKb | Compound
about 3.69 | O=C([O-])[O-].[Na+].[Na+] [Na2CO3]
about 3.69 | O=C([O-])[O-].[Cu+2] [CuCO3]
about 3.69 | O=C([O-])[O-].[Li+].[Li+] [Li2CO3]
about 3.69 | O=C([O-])[O-].[K+].[K+] [K2CO3]
